Test results reported in patent US4590189A, “Condensed pyrrolinone derivatives, their production and use” (Takeda Chemical Industries, Ltd., priority 1982, dated 1986).

Target: benzodiazepine receptor
Experiment: Specific benzodiazepine receptor binding: displacement of [^3 H] diazepam in crude mitochondrial fractions of rat cerebral cortex
Set-up: species or system rat (male SD strain)
Conditions: [^3 H] diazepam 2 nM, pH 7.4, 4° C., 20 minutes; read-out: IC50, effect on specific binding of [^3 H] diazepam
Protocol: The pharmacological properties of the compounds (I) of this invention were investigated by determining the substituting power thereof for radioactive diazepam from a benzodiazepine receptor.
Specific benzodiazepine receptor binding was carried out according to the method of C. Braestrup and R. F. Squiras (European J. Pharmacol., Vol. 48, 263-270, 1978). Thus, crude mitochondrial fractions obtained from the cerebral cortex of male SD strain rats 9 to 10 weeks of age were suspended in 50 mM Tris-HCl buffer (pH 7.4) and incubated with one of a series of concentrations of the test compound and [^3 H] diazepam (final concentration 2 nM) at 4° C. for 20 minutes. Then, the suspension was filtered through a Whatman GF/B glass fiber filter and the radioactivity of [^3 H] diazepam on the filter was measured by the liquid scintillation method. The concentration of the test drug which caused a 50% inhibition of [^3 H] diazepam specific binding was taken as the IC50 value.

Row | SMILES | IC50
1 | O=C(CC1c2ccccc2C(=O)N1c1ccc(Cl)cc1)N1CCCCC1 (stereo not drawn) | 8.86 nM
2 | CN(Cc1ccccc1)C(=O)CC1c2ccccc2C(=O)N1c1ccccc1 (stereo not drawn) | 19.5 nM
3 | COc1ccc(N2C(=O)c3ccc(Cl)cc3C2CC(=O)N2CCN(C)CC2)cc1 (stereo not drawn) | 1.99 nM
4 | COc1ccc(N2C(=O)c3ccc(Cl)cc3C2CC(=O)N2CCCCC2)cc1 (stereo not drawn) | 0.794 nM
5 | COc1ccc(N2C(=O)c3ccccc3C2CC(=O)N2CCCCC2)cc1 (stereo not drawn) | 4.46 nM
6 | O=C(CC1c2ccccc2C(=O)N1c1ccc2ccc(Cl)nc2n1)N1CCCCC1 (stereo not drawn) | 0.645 nM
7 | COc1ccc(N2C(=O)c3ccc(N)cc3C2CC(=O)N2CCCCC2)cc1 (stereo not drawn) | 3.8 nM
8 | COc1ccc(N2C(=O)c3ccccc3C2CC(=O)N2CCSC2)cc1 (stereo not drawn) | 4.9 nM
9 | O=C(CC1C2=C(SCCS2)C(=O)N1c1ccc(Cl)cc1)N1CCCCC1 (stereo not drawn) | 9.55 nM
10 | O=C(CC1C2=C(SCCS2)C(=O)N1c1ccc(Cl)cc1)N1CCCCCC1 (stereo not drawn) | 5.75 nM
11 | COc1ccc(N2C(=O)C3=C(SCCS3)C2CC(=O)N2CCCCC2)cc1 (stereo not drawn) | 1.05 nM
12 | O=C(CC1C2=C(SCCS2)C(=O)N1c1ccccc1)N1CCCCC1 (stereo not drawn) | 7.58 nM
